Legend:
[1] = Pharmacokinetics and tissue distribution of carboplatin in CD-1 mice; type: in vivo; settings: carboplatin 60 mg/kg iv
Procedure: Pharmacokinetic studies were carried out using a protocol similar to that previously described (Wang, 1999) using metabolism cages. Male CD-1 mice were pre-treated with DEX (s.c., 0.1 mg/day/mouse for 5 days) or saline (as controls), and, at 1 hr after the fifth dose of DEX, were given a single intravenously (i.v.) bolus administration of carboplatin (60 mg/kg) via a tail vein. At various times (5, 15, and 30 min, 1, 2, 4, 8, and 24 hr after drug dosing; 3 animals for each time point)), blood samples were collected in heparinized tubes and tissue samples removed. Plasma was separated by centrifugation at 20,000 g for 5 min. Tissues including liver, kidneys and spleen were immediately blotted on Whatman No. 1 filter paper, trimmed of extraneous fat or connective tissue, weighed, and homogenized in 0.9% NaCl physiological saline (5 mL per g of wet tissue weight). The resultant homogenates were stored at −70° C. until further analysis. Bone marrow cells were harvested by flushing the femurs with sterile physiological saline as reported previously (Zhang, 1993). The resultant bone marrow cell suspension was weighed and lysed by sonicating 5 times for periods of 10 sec. Following centrifugation at 20,000 g for 30 min, the supernatant was removed and stored at −70° C. until further analysis.
[…] in biological samples was analyzed by an analytical procedure involving micro-filtration and reversed-phase HPLC (Bullen, 1992). 200 μL of plasma or tissue homogenates or bone marrow suspension was added to the reservoir of a Centrifree™ micropartition system. The latter was capped and centrifuged at 2,000 g for 5 min. All filtrates were transferred into a new micro centrifuge tube and 6 μL of the filtrates was injected onto the HPLC column. The HPLC system consisted of a Hewlett Packard 1050 ChemStation with a UV detector (Agilent 1050 series). Determination of Carboplatin was achieved using a LiChrosorb™ diol (10 μm, 250×4.6 mm) analytical column with a LiChroCART 100 RP-18 guard column. The mobile phase for plasma was composed of 98:2 acetonitrile: H2O (vol/vol) and 89:11 acetonitrile: 0.015% H3PO4 (vol/vol) for urine and tissue samples. The flow rates were 2 mL/min (for plasma) and 1.1 mL/min (for urine and tissue samples). The column elute was monitored by UV at 229 nm. Quantitation of plasma or tissue carboplatin was carried out by using an external standard curve (0-4,000.0 μg/mL) that was freshly prepared daily. Linear regression and correlation analysis were carried out to establish the standard peak-area/concentration curves for carboplatin.
The significance of the differences among treated groups and controls were analyzed by ANOVA.

[2] = system: human cancer xenografts; assay: Six murine-human cancer xenograft models overall: efficacy and toxicity; settings: nude mice; carboplatin 120 mg/kg, gemcitabine 160 mg/kg i.p.
Procedure: Human cancer xenograft models were established using the methods reported previously (26-29). When confluence reached 80%, cultured LS174T, MCF-7, MDA-MB-468, U87-MG, A549 and H1299 cells were harvested from the monolayer cultures, washed with the above indicated serum-free medium and resuspended in the same medium with Matrigel® basement membrane matrix at a 3:1 ratio, and then injected subcutaneously (s.c.) (5×10^6 cells, total volume 0.2 mL) into the left inguinal area of the nude mice. The animals were monitored for activity, physical condition, determination of body weight, and measurement of tumor growth. Tumor growth was determined by caliper measurement in two perpendicular diameters of the implant every other day. Tumor weight (in g) was calculated by the formula, 1/2a×b^2 where “a” is the long diameter and “b” is the short diameter (in cm).
Nude mice bearing human cancer xenografts were randomly divided into various treatment and control groups (5 mice/group). In treatment groups, animals were pre-treated with DEX subcutaneously (s.c., 0.1 mg/day for 5 days, Day −4-0) or saline (as controls). Carboplatin was administered intraperitoneally (i.p.) at a single dose of 120 mg/kg (360 mg/m^2) on day 0.
The antitumor activity (tumor mass) and peripheral blood counts were expressed as mean and standard deviations and the significance of differences were analyzed by ANOVA.
When mean tumor mass reached 44-68 mg, animals were treated with s.c. DEX at a dose of 0.1 mg/day for 5 days, followed by chemotherapy.

N.N.O=C([O-])C1(C(=O)[O-])CCC1.[Pt+2] [carboplatin]
AUC of carboplatin in spleen, DEX pretreated relative to control mice [1]: approximately 16.5%
carboplatin AUC decrease in bone marrow, DEX pretreated vs control mice [1]: 57.4%
decrease of carboplatin uptake in liver by DEX pretreatment [1]: 40%
AUC ([1]; bone marrow, DEX (+)): 517160 ng·h/mL
CL ([1]; bone marrow, DEX (+)): 0.12 mL/g/h
Cmax ([1]; bone marrow, DEX (+)): 20610 ng/mL
T1/2 ([1]; bone marrow, DEX (+)): 922.8 min
Vss ([1]; bone marrow, DEX (+)): 2.57 mL/g
AUC ([1]; bone marrow, DEX (−)): 901600 ng·h/mL
CL ([1]; bone marrow, DEX (−)): 0.07 mL/g/h
Cmax ([1]; bone marrow, DEX (−)): 20140 ng/mL
T1/2 ([1]; bone marrow, DEX (−)): 1708 min
Vss ([1]; bone marrow, DEX (−)): 2.75 mL/g
AUC ([1]; liver, DEX (+)): 25020 ng·h/mL
CL ([1]; liver, DEX (+)): 2.40 mL/g/h
Cmax ([1]; liver, DEX (+)): 16550 ng/mL
T1/2 ([1]; liver, DEX (+)): 23.4 min
Vss ([1]; liver, DEX (+)): 1.35 mL/g
AUC ([1]; liver, DEX (−)): 38710 ng·h/mL
CL ([1]; liver, DEX (−)): 1.55 mL/g/h
Cmax ([1]; liver, DEX (−)): 25440 ng/mL
T1/2 ([1]; liver, DEX (−)): 23.4 min
Vss ([1]; liver, DEX (−)): 0.87 mL/g
AUC ([1]; plasma, DEX (+)): 42690 ng·h/mL
CL ([1]; plasma, DEX (+)): 1.41 mL/g/h
Cmax ([1]; plasma, DEX (+)): 227580 ng/mL
T1/2 ([1]; plasma, DEX (+)): 7.8 min
Vss ([1]; plasma, DEX (+)): 0.26 mL/g
AUC ([1]; plasma, DEX (−)): 44180 ng·h/mL
CL ([1]; plasma, DEX (−)): 1.36 mL/g/h
Cmax ([1]; plasma, DEX (−)): 352620 ng/mL
T1/2 ([1]; plasma, DEX (−)): 5.4 min
Vss ([1]; plasma, DEX (−)): 0.17 mL/g
AUC ([1]; spleen, DEX (+)): 56720 ng·h/mL
CL ([1]; spleen, DEX (+)): 1.06 mL/g/h
Cmax ([1]; spleen, DEX (+)): 17790 ng/mL
T1/2 ([1]; spleen, DEX (+)): 49.2 min
Vss ([1]; spleen, DEX (+)): 1.25 mL/g
AUC ([1]; spleen, DEX (−)): 344110 ng·h/mL
CL ([1]; spleen, DEX (−)): 0.17 mL/g/h
Cmax ([1]; spleen, DEX (−)): 118730 ng/mL
T1/2 ([1]; spleen, DEX (−)): 45 min
Vss ([1]; spleen, DEX (−)): 0.19 mL/g
death [2]: no death occurred
tolerability by inspection and animal weights [2]: tolerated well

Reference: patent US20050244335A1, “Methods and compositions related to increasing antitumor activity of chemotherapeutic agents” (priority 2004, published 2005)
